For test [1], the target named is T1, human recombinant histamine H3R (Homo sapiens, UniProt Q9Y5N1).
T1 construct: expressed in transfected cells
To be noted: mean [CI 95%]; read-out: hH3R Ki; cited from earlier work.

A further test deals with T2, σ2R (Rattus norvegicus, UniProt Q5U3Y7).
T2 sequence (Q5U3Y7 1-176): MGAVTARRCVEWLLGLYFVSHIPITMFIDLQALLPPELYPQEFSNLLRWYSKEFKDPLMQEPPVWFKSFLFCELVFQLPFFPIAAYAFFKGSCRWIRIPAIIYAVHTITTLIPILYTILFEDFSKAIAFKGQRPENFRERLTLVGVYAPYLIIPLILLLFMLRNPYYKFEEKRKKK
In words: σ2R radioligand binding ([3H]DTG, liver membranes).

Test [2] relates to σ1R. In words: σ1R radioligand binding ([3H](+)-pentazocine, brain cortex membranes). To be noted: σ2R Ki / σ1R Ki (selectivity factor).
Test [3] deals with σ1R (Cavia porcellus, UniProt Q60492). The test is described as above.
σ1R (Cavia porcellus, UniProt Q60492), sequence (Q60492 whole entry): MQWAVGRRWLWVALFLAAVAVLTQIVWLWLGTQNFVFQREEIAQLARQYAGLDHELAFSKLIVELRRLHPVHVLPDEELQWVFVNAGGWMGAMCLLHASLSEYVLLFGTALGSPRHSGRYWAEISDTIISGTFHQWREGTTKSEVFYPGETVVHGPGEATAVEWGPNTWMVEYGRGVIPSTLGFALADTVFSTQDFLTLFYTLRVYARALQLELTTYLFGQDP
The test system of the next test is female CD1 mice. Put plainly: loperamide-induced antinociception, paw pressure struggle response latency. Format: in vivo. To be noted: mice.
Setting [4] is: exptl Ki σ2, Table 3, given as mean ± spread.
Where [5] appears, read: σ2R Ki, mean [CI 95%], [3H]DTG with (+)-pentazocine mask.
Setting [6] is: exptl Ki σ1, Table 3, given as mean ± spread.
The mark [7] stands for this setting: σ1R Ki, mean [CI 95%], [3H](+)-pentazocine.

Where a name gives a salt, the structure may show the parent alone. Where only a bound is given, the exact number is not on record here.

T1 sequence (Q9Y5N1 whole entry): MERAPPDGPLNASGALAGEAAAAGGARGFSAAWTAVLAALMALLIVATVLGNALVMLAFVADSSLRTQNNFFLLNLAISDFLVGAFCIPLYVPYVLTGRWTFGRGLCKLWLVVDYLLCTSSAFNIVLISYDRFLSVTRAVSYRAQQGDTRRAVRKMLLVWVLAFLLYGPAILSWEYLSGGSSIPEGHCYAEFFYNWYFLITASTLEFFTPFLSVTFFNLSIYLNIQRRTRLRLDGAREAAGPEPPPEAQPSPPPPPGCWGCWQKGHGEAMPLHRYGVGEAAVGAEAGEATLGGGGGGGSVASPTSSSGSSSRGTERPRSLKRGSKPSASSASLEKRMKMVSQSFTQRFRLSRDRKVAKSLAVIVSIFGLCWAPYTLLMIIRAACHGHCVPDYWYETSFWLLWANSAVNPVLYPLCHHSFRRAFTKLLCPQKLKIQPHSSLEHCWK

Take `CCc1ccc(OCCCN2CCN(c3ccncc3)CC2)cc1` [Compound 1]: the Ki was 40.4 nM in test [1]; 64.3 ± 14 nM at σ2R (setting [4]); 64.3 nM at σ2R (setting [5]); 592 ± 94.1 nM on σ1R [3] (setting [6]); 592 nM at σ1R [3] (setting [7]). The σ2/σ1 ratio with σ1R [2] came to 0.1.

Take `CC(C)(C)c1ccc(OCCCN2CCN(c3ccncc3)CC2)cc1` [Compound 2]: the Ki on σ2R (setting [4]) came to 130 ± 8.23 nM; on σ2R (setting [5]) it was 130 nM; on σ1R [3] (setting [6]), 112 ± 9.45 nM; on σ1R [3] (setting [7]) it was 112 nM. The σ2/σ1 ratio in the test on σ1R [2] amounted to 1.2.

With `CC(=O)c1ccc(OCCCN2CCN(c3ccncc3)CC2)cc1` [Compound 3], the Ki on σ2R (setting [4]) came out at 247 ± 39.4 nM; at σ2R (setting [5]), 247 nM; on σ1R [3] (setting [6]), 1410 ± 312 nM; on σ1R [3] (setting [7]), 1410 nM. Besides, the σ2/σ1 ratio with σ1R [2] was 0.2.

For `O=C(c1ccc(OCCCN2CCN(c3ccncc3)CC2)cc1)C1CC1` [Compound 4], the Ki in test [1] is 3 nM; on σ2R (setting [4]), 101 ± 15.4 nM; on σ2R (setting [5]) it was 101 nM; on σ1R [3] (setting [6]), 1530 ± 275 nM; on σ1R [3] (setting [7]), 1530 nM. Besides, the σ2/σ1 ratio with σ1R [2] is listed as 0.1.

On to `c1ccc(-c2ccc(OCCCN3CCN(c4ccncc4)CC3)cc2)cc1` [Compound 6], for which the Ki in test [1] was 21.1 nM; on σ2R (setting [4]), 108 ± 19.2 nM; on σ2R (setting [5]) it was 108 nM; at σ1R [3] (setting [6]), 638 ± 120 nM; on σ1R [3] (setting [7]), 638 nM. In the test on σ1R [2], the σ2/σ1 ratio is on record as 0.2.

Take `N#Cc1ccc(-c2ccc(OCCCN3CCN(c4ccncc4)CC3)cc2)cc1` [Compound 7]: the Ki came to 75.2 ± 13 nM at σ2R (setting [4]) and 75.2 nM on σ2R (setting [5]).

As for `O=C(c1ccccc1)c1ccc(OCCCN2CCN(c3ccncc3)CC2)cc1` [Compound 8], the Ki at σ2R (setting [4]) came to 29.2 ± 1.81 nM; on σ2R (setting [5]), 29.2 nM; on σ1R [3] (setting [6]), 726 ± 177 nM; on σ1R [3] (setting [7]) it was 726 nM.

Consider `O=C(c1ccc(Cl)cc1)c1ccc(OCCCN2CCN(c3ccncc3)CC2)cc1` [Compound 9], for which the Ki on σ2R (setting [4]) was 32.4 ± 3.46 nM; at σ2R (setting [5]), 32.4 nM; on σ1R [3] (setting [6]), 641 ± 87.9 nM; on σ1R [3] (setting [7]), 641 nM. Besides, in the test on σ1R [2], the σ2/σ1 ratio was 0.1.

Turning to `O=C(c1ccc(F)cc1)c1ccc(OCCCN2CCN(c3ccncc3)CC2)cc1` [Compound 10], the Ki was found to be 164 ± 34.6 nM on σ2R (setting [4]), 164 nM at σ2R (setting [5]), 1310 ± 332 nM at σ1R [3] (setting [6]) and 1310 nM at σ1R [3] (setting [7]). In addition, in the test with σ1R [2], the σ2/σ1 ratio stood at 0.1.

With `CC(C)(C)c1ccc(OCCCCN2CCN(c3ccncc3)CC2)cc1` [Compound 13], the inhibition constant (Ki) at σ2R (setting [4]) is 175 ± 35.1 nM; on σ2R (setting [5]), 175 nM; at σ1R [3] (setting [6]), 51.8 ± 9.1 nM; at σ1R [3] (setting [7]), 51.8 nM. In addition, in the test on σ1R [2], the σ2/σ1 ratio is given as 3.4.

With `CCC(C)(C)c1ccc(OCCCCN2CCN(c3ccncc3)CC2)cc1` [Compound 14], the Ki at σ2R (setting [4]) amounted to 101 ± 19.3 nM; at σ2R (setting [5]) it was 101 nM; on σ1R [3] (setting [6]), 285 ± 50.4 nM; at σ1R [3] (setting [7]), 285 nM. For the same compound, the σ2/σ1 ratio with σ1R [2] is on record as 0.4.

Take `CC(=O)c1ccc(OCCCCN2CCN(c3ccncc3)CC2)cc1` [Compound 15]: the Ki is 1790 ± 415 nM on σ2R (setting [4]), 1800 nM at σ2R (setting [5]), greater than 10000 nM on σ1R [3] (setting [6]) and greater than 10000 nM on σ1R [3] (setting [7]). The σ2/σ1 ratio in the test with σ1R [2] is listed as less than 0.2.

As for `CN(C)C(=O)C(CCN1CCC(O)(c2ccc(Cl)cc2)CC1)(c1ccccc1)c1ccccc1` [loperamide, loperamide hydrochloride, reference compound], the “struggle response latency versus solvent” value with female CD1 mice (4 mg/kg sc alone) is given as “minimal (nonsignificant) increase in the struggle response latency”.

With `C=CCN1CC[C@]23c4c5ccc(O)c4O[C@H]2C(=O)CC[C@@]3(O)[C@H]1C5` [naloxone, Naloxone hydrochloride, reference compound], in the test on female CD1 mice (1 mg/kg sc, identical with 5 or 11), the “effect on antinociception of loperamide + S1RA” value is “full reversion of the antinociceptive effect of the combination of loperamide + S1RA”.

In general, Ki refers to the dissociation constant of the complex between target and ligand, obtained from inhibition or displacement.

The values are drawn from PMC8739840, “Structural and Molecular Insight into Piperazine and Piperidine Derivatives as Histamine H3 and Sigma-1 Receptor Antagonists with Promising Antinociceptive Properties” (ACS Chemical Neuroscience, 2021).
